As usually defined, the Kd is a measure of binding affinity in units of concentration.

Where two headings read alike, the source gives them in different places. Numbered stars: 1 amine (or outer) side, 2 acyl side, 3 side chain; on linkers, the order of the positions; unused ones are H or OH. Bridge positions count the residues as written; N and C are the ends. Square brackets hold non-standard residues; d marks the D form. Peptide text beside a SMILES is read from it. * marks the point of attachment. X11 = O=C(O)CN1CCN(CC(=O)O)CCN(CC(=O)NCCCC[C@@H](NC(=O)COCCOCCOCCOCCOCCOCCOCCOCCNC(=O)Cc2ccc(Br)cc2)C(=O)NCCOCCOCCOCCOCCOCCOCCOCCOCC(=O)*)CCN(CC(=O)O)CC1; DOTA = O=C(O)CN1CCN(CC(=O)O)CCN(CC(=O)*)CCN(CC(=O)O)CC1; X3 = CC[C@H](c1c[nH]c2ccccc12)[C@H](N[*:1])C(=O)[*:2]; Trp(5-F) = N[C@@H](Cc1c[nH]c2ccc(F)cc12)C(=O)O; Phe(2-CF3) = N[C@@H](Cc1ccccc1C(F)(F)F)C(=O)O; Trp(7-aza) = N[C@@H](Cc1c[nH]c2ncccc12)C(=O)O; Pro(trans-4-F) = O=C(O)[C@@H]1C[C@@H](F)CN1; Lys(Me3) = C[N+](C)(C)CCCC[C@H](N)C(=O)O; PEG8 = NCCOCCOCCOCCOCCOCCOCCOCCOCCC(=O)O; γGlu = O=C(O)[C@H](CCC(=O)[*:2])N[*:1]; 1Nal = N[C@@H](Cc1cccc2ccccc12)C(=O)O; 2Nal = N[C@@H](Cc1ccc2ccccc2c1)C(=O)O; Gly(4-THP) = N[C@H](C(=O)O)C1CCOCC1; Nva(3-Et) = CCC(CC)[C@H](N)C(=O)O; Nle = CCCC[C@H](N)C(=O)O; Aze = O=C(O)[C@@H]1CCN1; Abu = CC[C@H](N)C(=O)O

This note sets out measurements from US20250011368A1, “DLL3 TARGETING PEPTIDES AND CONSTRUCTS THEREOF” (MARIANA ONCOLOGY INC., priority 2023, published 2025).

This assay has as its target T1, human DLL3 (Homo sapiens, UniProt Q9NYJ7).
T1 sequence (Q9NYJ7 27-618): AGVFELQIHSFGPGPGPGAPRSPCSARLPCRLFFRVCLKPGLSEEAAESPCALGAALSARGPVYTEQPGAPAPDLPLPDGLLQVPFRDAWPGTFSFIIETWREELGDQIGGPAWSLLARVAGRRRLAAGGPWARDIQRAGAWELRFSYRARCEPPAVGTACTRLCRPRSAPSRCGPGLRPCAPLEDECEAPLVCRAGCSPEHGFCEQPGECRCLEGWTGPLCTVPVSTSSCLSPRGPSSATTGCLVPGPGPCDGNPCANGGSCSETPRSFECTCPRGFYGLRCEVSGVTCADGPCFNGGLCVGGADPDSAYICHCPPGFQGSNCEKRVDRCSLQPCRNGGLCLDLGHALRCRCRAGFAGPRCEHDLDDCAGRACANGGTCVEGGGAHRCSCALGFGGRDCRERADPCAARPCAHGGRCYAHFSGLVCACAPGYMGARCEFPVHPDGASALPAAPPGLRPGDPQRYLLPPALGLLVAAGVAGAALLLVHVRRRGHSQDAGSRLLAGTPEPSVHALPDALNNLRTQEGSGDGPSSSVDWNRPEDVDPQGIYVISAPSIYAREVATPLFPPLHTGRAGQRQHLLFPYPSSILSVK
Briefly: Affinity determination by Surface Plasmon Resonance (SPR). Type of assay: binding. Put shortly:
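Biotinylated human DLL3 was captured on a streptavidin chip with a reference surface. Compounds at several concentrations were injected at 100 μL/minute in phosphate buffer (137 mM NaCl, 2.7 mM KCl, 0.05% P20, 2% DMSO). Affinity and kinetics came from 1:1 model fits of the sensorgrams.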

Setting [1] is: 25° C., biotinylated human DLL3 immobilized on streptavidin sensor chip, 1:1 binding model, read-out: SPR KD.

As for `CC[C@H](NC(C)=O)C(=O)N[C@H](C(=O)N[C@H](C(=O)N[C@H]1CSSC[C@@H](C(=O)N[C@@H](Cc2c[nH]c3ccccc23)C(=O)N2CCC[C@H]2C(=O)N[C@@H](CCC(=O)N[C@@H](CCC(=O)N[C@@H](CCC(=O)N[C@H](CCCCNC(=O)CN2CCN(CC(=O)O)CCN(CC(=O)O)CCN(CC(=O)O)CC2)C(N)=O)C(=O)O)C(=O)O)C(=O)O)NC(=O)[C@H](CC(=O)O)NC(=O)[C@H](Cc2cnc[nH]2)NC(=O)[C@H](Cc2ccc3ccccc3c2)NC(=O)[C@H](CC(N)=O)NC(=O)[C@H](CC(N)=O)NC1=O)[C@H](CC)c1c[nH]c2ccccc12)[C@@H](C)O` [compound 234, Ac-W-T-I-C(3)-N-N-(2Nal)-H-D-C(3)-W-P-gE-gE-gE-[D-Lys(DOTA)]-NH2] (Ac-[Abu]T[X3]CNN[2Nal]HDCWP[γGlu][γGlu][γGlu][dK](DOTA)-NH2; disulfide 4-10), under setting [1], the dissociation constant (Kd) was under 1 nM.

On to `CC[C@H](C)[C@H](NC(=O)[C@@H](NC(=O)[C@H](Cc1c[nH]c2ccccc12)NC(C)=O)[C@@H](C)O)C(=O)N[C@H]1CSSC[C@@H](C(=O)N[C@@H](Cc2c[nH]c3ccccc23)C(=O)N2CCC[C@H]2C(=O)N2CCC[C@@H]2C(=O)NCCOCCOCCOCCOCCOCCOCCOCCOCCC(=O)N[C@H](CCCCNC(=O)CN2CCN(CC(=O)O)CCN(CC(=O)O)CCN(CC(=O)O)CC2)C(N)=O)NC(=O)[C@H](CC(=O)O)NC(=O)[C@H](Cc2cnc[nH]2)NC(=O)[C@H](Cc2ccc3ccccc3c2)NC(=O)[C@H](CC(N)=O)NC(=O)[C@H](CC(N)=O)NC1=O` [compound 235, Ac-W-T-I-C(3)-N-N-(2Nal)-H-D-C(3)-W-P-(D-Pro)-PEG8-[D-Lys(DOTA)]-NH2] (Ac-WTICNN[2Nal]HDCWP[dP][PEG8][dK](DOTA)-NH2; disulfide 4-10), for which the Kd under setting [1] is under 1 nM.

For the compound `CC[C@H](C)[C@H](NC(=O)[C@@H](NC(=O)[C@H](Cc1c[nH]c2ccccc12)NC(C)=O)[C@@H](C)O)C(=O)N[C@H]1CSSC[C@@H](C(=O)N[C@@H](Cc2c[nH]c3ccccc23)C(=O)N2CCC[C@H]2C(=O)N[C@H](CCCCNC(=O)CN2CCN(CC(=O)O)CCN(CC(=O)O)CCN(CC(=O)O)CC2)C(N)=O)NC(=O)[C@H](CC(=O)O)NC(=O)[C@H](CCCC[N+](C)(C)C)NC(=O)[C@H](Cc2ccc3ccccc3c2)NC(=O)[C@H](CC(N)=O)NC(=O)[C@H](CC(N)=O)NC1=O` [compound 238, Ac-W-T-I-C(3)-N-N-(2Nal)-(K(Me)3)-D-C(3)-W-P-[D-Lys(DOTA)]-NH2] (Ac-WTICNN[2Nal][Lys(Me3)]DCWP[dK](DOTA)-NH2; disulfide 4-10), the Kd under setting [1] was in the range of 1 to 10 nM.

Turning to `CCC(CC)[C@H](NC(=O)[C@@H](NC(=O)[C@H](Cc1c[nH]c2ccc(F)cc12)NC(C)=O)[C@@H](C)O)C(=O)N[C@H]1CSSC[C@@H](C(=O)N[C@@H](Cc2c[nH]c3ncccc23)C(=O)N2CC[C@H]2C(=O)N[C@@H](CCCCNC(=O)CN2CCN(CC(=O)O)CCN(CC(=O)O)CCN(CC(=O)O)CC2)C(N)=O)NC(=O)[C@H](CC(=O)O)NC(=O)[C@H](Cc2c[nH]cn2)NC(=O)[C@H](Cc2cccc3ccccc23)NC(=O)[C@H](CC(N)=O)NC(=O)[C@H](CC(N)=O)NC1=O` [compound 241, Ac-(5Fluoro-W)-T-(Env)-C(3)-N-N-(1Nal)-H-D-C(3)-(7Aza-W)-(Aze)-[D-Lys(DOTA)]-NH2] (Ac-[Trp(5-F)]T[Nva(3-Et)]CNN[1Nal]HDC[Trp(7-aza)][Aze]K(DOTA)-NH2; disulfide 4-10), the Kd under setting [1] lay within 1 to 10 nM.

`CCC(CC)[C@H](NC(=O)[C@@H](NC(=O)[C@H](Cc1c[nH]c2ccc(F)cc12)NC(C)=O)[C@@H](C)O)C(=O)N[C@H]1CSSC[C@@H](C(=O)N[C@@H](Cc2c[nH]c3ncccc23)C(=O)N2C[C@H](F)C[C@H]2C(=O)N[C@@H](CCCCNC(=O)CN2CCN(CC(=O)O)CCN(CC(=O)O)CCN(CC(=O)O)CC2)C(N)=O)NC(=O)[C@H](CC(=O)O)NC(=O)[C@H](Cc2cnc[nH]2)NC(=O)[C@H](Cc2ccc3ccccc3c2)NC(=O)[C@H](CC(N)=O)NC(=O)[C@H](CC(N)=O)NC1=O` [compound 242, Ac-(5Fluoro-W)-T-(Env)-C(3)-N-N-(2Nal)-H-D-C(3)-(7Aza-W)-(trans4Fluoro-P)-[D-Lys(DOTA)]-NH2] (Ac-[Trp(5-F)]T[Nva(3-Et)]CNN[2Nal]HDC[Trp(7-aza)][Pro(trans-4-F)]K(DOTA)-NH2; disulfide 4-10): the Kd under setting [1] was under 1 nM.

In the case of `CC(=O)N[C@@H](Cc1c[nH]c2ccc(F)cc12)C(=O)N[C@H](C(=O)N[C@H](C(=O)N[C@H]1CSSC[C@@H](C(=O)N[C@@H](Cc2c[nH]c3ncccc23)C(=O)N2C[C@H](F)C[C@H]2C(=O)N[C@@H](CCCCNC(=O)CN2CCN(CC(=O)O)CCN(CC(=O)O)CCN(CC(=O)O)CC2)C(N)=O)NC(=O)[C@H](CC(=O)O)NC(=O)[C@H](Cc2c[nH]cn2)NC(=O)[C@H](Cc2ccc3ccccc3c2)NC(=O)[C@H](CC(N)=O)NC(=O)[C@H](CC(N)=O)NC1=O)C1CCOCC1)[C@@H](C)O` [compound 243, Ac-(5Fluoro-W)-T-(THPG)-C(3)-N-N-(2Nal)-H-D-C(3)-(7Aza-W)-(trans4Fluoro-P)-[D-Lys(DOTA)]-NH2] (Ac-[Trp(5-F)]T[Gly(4-THP)]CNN[2Nal]HDC[Trp(7-aza)][Pro(trans-4-F)]K(DOTA)-NH2; disulfide 4-10), under setting [1], the Kd was under 1 nM.

In the case of `CCCC[C@H](NC(=O)[C@@H](NC(=O)[C@H](Cc1c[nH]c2ccc(F)cc12)NC(C)=O)[C@@H](C)O)C(=O)N[C@H]1CSSC[C@@H](C(=O)N[C@@H](Cc2c[nH]c3ncccc23)C(=O)N2C[C@H](F)C[C@H]2C(=O)N[C@H](CCCCNC(=O)CN2CCN(CC(=O)O)CCN(CC(=O)O)CCN(CC(=O)O)CC2)C(N)=O)NC(=O)[C@H](CC(=O)O)NC(=O)[C@H](Cc2c[nH]cn2)NC(=O)[C@H](Cc2ccc3ccccc3c2)NC(=O)[C@H](CC(N)=O)NC(=O)[C@H](CC(N)=O)NC1=O` [compound 244, Ac-(5Fluoro-W)-T-(Nle)-C(3)-N-N-(2Nal)-H-D-C(3)-(7Aza-W)-(trans4Fluoro-P)-[D-Lys(DOTA)]-NH2] (Ac-[Trp(5-F)]T[Nle]CNN[2Nal]HDC[Trp(7-aza)][Pro(trans-4-F)][dK](DOTA)-NH2; disulfide 4-10), under setting [1], the Kd was under 1 nM.

Turning to `CC(=O)N[C@@H](Cc1c[nH]c2ccc(F)cc12)C(=O)N[C@H](C(=O)N[C@@H](Cc1ccccc1C(F)(F)F)C(=O)N[C@H]1CSSC[C@@H](C(=O)N[C@@H](Cc2c[nH]c3ncccc23)C(=O)N2C[C@H](F)C[C@H]2C(=O)N[C@@H](CCCCNC(=O)CN2CCN(CC(=O)O)CCN(CC(=O)O)CCN(CC(=O)O)CC2)C(N)=O)NC(=O)[C@H](CC(=O)O)NC(=O)[C@H](Cc2cnc[nH]2)NC(=O)[C@H](Cc2ccc3ccccc3c2)NC(=O)[C@H](CC(N)=O)NC(=O)[C@H](CC(N)=O)NC1=O)[C@@H](C)O` [compound 246, Ac-(5Fluoro-W)-T-(2CF3-F)-C(3)-N-N-(2Nal)-H-D-C(3)-(7Aza-W)-(trans4Fluoro-P)-[D-Lys(DOTA)]-NH2] (Ac-[Trp(5-F)]T[Phe(2-CF3)]CNN[2Nal]HDC[Trp(7-aza)][Pro(trans-4-F)]K(DOTA)-NH2; disulfide 4-10), the Kd under setting [1] was under 1 nM.

The compound `CC[C@H](C)[C@H](NC(=O)[C@@H](NC(=O)[C@H](Cc1c[nH]c2ccccc12)NC(C)=O)[C@@H](C)O)C(=O)N[C@H]1CSSC[C@@H](C(=O)N[C@@H](Cc2c[nH]c3ccccc23)C(=O)N2CCC[C@H]2C(=O)N[C@H](CCCCNC(=O)COCCOCCOCCOCCOCCOCCOCCOCCNC(=O)[C@@H](CCCCNC(=O)CN2CCN(CC(=O)O)CCN(CC(=O)O)CCN(CC(=O)O)CC2)NC(=O)COCCOCCOCCOCCOCCOCCOCCOCCNC(=O)Cc2ccc(Br)cc2)C(N)=O)NC(=O)[C@H](CC(=O)O)NC(=O)[C@H](Cc2c[nH]cn2)NC(=O)[C@H](Cc2ccc3ccccc3c2)NC(=O)[C@H](CC(N)=O)NC(=O)[C@H](CC(N)=O)NC1=O` [compound 251, Ac-W-T-I-C(3)-N-N-(2Nal)-H-D-C(3)-W-P-{D-Lys[PEG8-D-Lys(DOTA)-PEG8-COCH2Ph-4Br]}-NH2] (Ac-WTICNN[2Nal]HDCWP[dK](X11)-NH2; disulfide 4-10) gave a Kd of under 1 nM.

`CC[C@H](C)[C@H](NC(=O)[C@@H](NC(=O)[C@H](Cc1c[nH]c2ccccc12)NC(C)=O)[C@@H](C)O)C(=O)N[C@H]1CSSC[C@@H](C(=O)N[C@@H](Cc2c[nH]c3ccccc23)C(=O)N2CCC[C@H]2C(=O)N[C@H](CCCCNC(=O)COCCOCCOCCOCCOCCOCCOCCOCCNC(=O)[C@@H](CCCCNC(=O)CN2CCN(CC(=O)O)CCN(CC(=O)O)CCN(CC(=O)O)CC2)NC(=O)CCOCCOCCOCCOCCOCCOCCOCCOCCOCCOCCOCCOCCOCCOCCOCCOCCOCCOCCOCCOCCOCCOCCOCCOCCNC(=O)Cc2ccc(Br)cc2)C(N)=O)NC(=O)[C@H](CC(=O)O)NC(=O)[C@H](Cc2c[nH]cn2)NC(=O)[C@H](Cc2ccc3ccccc3c2)NC(=O)[C@H](CC(N)=O)NC(=O)[C@H](CC(N)=O)NC1=O` [compound 255, Ac-W-T-I-C(3)-N-N-(2Nal)-H-D-C(3)-W-P-{D-Lys[PEG8-D-Lys(DOTA)-PEG24-COCH2Ph-4Br]}-NH2]: the Kd was 1 to 10 nM.
